Test results: patent publication US11702422B2, “Imidazopyridazines as modulators of IL-17” (Janssen Pharmaceutica NV, priority 2020, dated 2023)

How the values were obtained:
[1] = test system: IL-17A-induced G-CSF production in human normal keratinocyte (NHK); test: NHK Assay: IL-17A-induced G-CSF production in human normal keratinocytes; assay type: cell-based; conditions: 24 h, adult normal human keratinocytes, IL-17A 5 ng/mL, simple average if tested more than once
Summary of the method: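 IL-17A (5 ng/mL final) was pre-incubated 1 h at rt with titrated compound and then added to adult normal human keratinocytes (5% FBS, 0.2% DMSO) for 24 h at 37° C. Supernatant G-CSF was measured by HTRF against a standard curve to derive IC50. Viability was checked by CellTiter-Glo.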

[2] = target: IL-17A(FLAG-Tagged): IL-17RA(His-Tagged) (Homo sapiens, UniProt Q16552, K93Q); test: IL-17A(FLAG-Tagged): IL-17RA(His-Tagged) Binding Disruption Eu-HTRF Assay; conditions: IL-17A/IL-17RA binding disruption, simple average if tested more than once
Summary of the method: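 IC50 comes from a one-site competition fit of the HTRF 665/620 nm ratio. Compound dilutions (2-fold, 22 points) were held 1 h rt with FLAG-tagged IL-17A dimer, then His-tagged IL-17RA plus Eu-cryptate anti-FLAG and D2 anti-His antibodies were added for 2 h rt.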

Chain of UniProt Q16552 (Q16552 with tags, fused parts or gaps K93Q): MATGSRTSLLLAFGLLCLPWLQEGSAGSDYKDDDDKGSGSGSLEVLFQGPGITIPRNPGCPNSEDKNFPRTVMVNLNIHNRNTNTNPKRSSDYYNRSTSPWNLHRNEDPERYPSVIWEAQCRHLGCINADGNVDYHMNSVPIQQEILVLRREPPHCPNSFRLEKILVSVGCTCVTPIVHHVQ

SMILES	IC50 [2]	IC50 ([1]; Homo sapiens, Keratinocyte)	IC50 [1]
O=C(CCC(F)(F)F)N[C@@H](c1cnn2cc([C@@H](NC(=O)[C@H]3C[C@@H]3C(F)(F)F)C3CCC(F)(F)CC3)nc2c1)C1CC1 (relative stereo) [Example 149, (Trans-1S*,2S*)—N—((S)-(7-((R)-Cyclopropyl(4,4,4-trifluorobutanamido)methyl)imidazo[1,2-b]pyridazin-2-yl)(4,4-difluorocyclohexyl)methyl)-2-(trifluoromethyl)cyclopropane-1-carboxamide]	240 nM	510 nM	–
Cc1nocc1C(=O)N[C@H](c1cn2ncc(C(C)NC(=O)CCC(F)(F)F)cc2n1)C1CCC(F)(F)CC1 (stereo partly drawn) [Example 153, N-((1S)-(4,4-Difluorocyclohexyl)(7-(1-(4,4,4-trifluorobutanamido)ethyl)imidazo[1,2-b]pyridazin-2-yl)methyl)-3-methylisoxazole-4-carboxamide]	420 nM	480 nM	–
[2H]C([2H])([2H])n1nccc1C(=O)N[C@H](c1cn2ncc([C@H](NC(=O)CC3CC(F)(F)C3)C3CC3)cc2n1)C1CCC(F)(F)CC1 [Example 489, N—((S)-(7-((R)-Cyclopropyl(2-(3,3-difluorocyclobutyl)acetamido)methyl)imidazo[1,2-b]pyridazin-2-yl)(4,4-difluorocyclohexyl)methyl)-1-(methyl-d3)-1H-pyrazole-5-carboxamide]	54 nM	140 nM	–
CC(C)n1nccc1C(=O)N[C@H](c1cn2ncc([C@H](NC(=O)CC3CCC3)C3CC3)cc2n1)C1CCC(F)(F)CC1 [Example 246, N—((S)-(7-((R)-(2-Cyclobutylacetamido)(cyclopropyl)methyl)imidazo[1,2-b]pyridazin-2-yl)(4,4-difluorocyclohexyl)methyl)-1-isopropyl-1H-pyrazole-5-carboxamide]	90 nM	41 nM	–
O=C(CCC(F)(F)F)N[C@@H](c1cnn2cc([C@@H](NC(=O)c3ccccc3Cl)C3CCC(F)(F)CC3)nc2c1)C1CC1 [Example 42, 2-Chloro-N—((S)-(7-((R)-cyclopropyl(4,4,4-trifluorobutanamido)methyl)imidazo[1,2-b]pyridazin-2-yl)(4,4-difluorocyclohexyl)methyl)benzamide]	410 nM	2200 nM	–
Cc1nonc1C(=O)N[C@H](c1cn2ncc([C@H](NC(=O)CC(C)(C)C(F)(F)F)C3CC3)cc2n1)C1CCC(F)(F)CC1 [Example 253, N—((S)-(7-((R)-Cyclopropyl(4,4,4-trifluoro-3,3-dimethylbutanamido)methyl)imidazo[1,2-b]pyridazin-2-yl)(4,4-difluorocyclohexyl)methyl)-4-methyl-1,2,5-oxadiazole-3-carboxamide]	220 nM	760 nM	–
Cn1nccc1C(=O)N[C@H](c1cn2ncc(C(NC(=O)CCC(F)(F)F)C3CC3)cc2n1)C1CCC(F)(F)CC1 (single isomer, unassigned) [Example 23, N—((S)-(7-((R*)-Cyclopropyl(4,4,4-trifluorobutanamido)methyl)imidazo[1,2-b]pyridazin-2-yl)(4,4-difluorocyclohexyl)methyl)-1-methyl-1H-pyrazole-5-carboxamide]	54 nM	82 nM	–
CC(C)n1nccc1C(=O)N[C@H](c1cn2ncc(C(NC(=O)CCC(F)(F)F)C3CC3)cc2n1)C1CCC(F)(F)CC1 (single isomer, unassigned) [Example 14, N—((S)-(7-((R*)-Cyclopropyl(4,4,4-trifluorobutanamido)methyl)imidazo[1,2-b]pyridazin-2-yl)(4,4-difluorocyclohexyl)methyl)-1-isopropyl-1H-pyrazole-5-carboxamide]	120 nM	–	50 nM
O=C(CCC(F)(F)F)N[C@@H](c1cnn2cc([C@@H](NC(=O)c3cc(C4CC4)ccn3)C3CCC(F)(F)CC3)nc2c1)C1CC1 [Example 460, 4-Cyclopropyl-N—((S)-(7-((R)-cyclopropyl(4,4,4-trifluorobutanamido)methyl)imidazo[1,2-b]pyridazin-2-yl)(4,4-difluorocyclohexyl)methyl)picolinamide]	110 nM	1100 nM	–
O=C(CCC(F)(F)F)N[C@@H](c1cnn2cc([C@@H](NC(=O)c3cnn(CC4CCC4(F)F)n3)C3CCC(F)(F)CC3)nc2c1)C1CC1 (stereo partly shown) [Example 4]	100 nM	370 nM	–

Further lines, with some results ahead:

IC50 [2]	SMILES	IC50 ([1]; Homo sapiens, Keratinocyte)	IC50 [1]
130 nM	O=C(CC(C(F)(F)F)C(F)(F)F)NC(c1cnn2cc([C@@H](NC(=O)c3ccccc3)C3CCC(F)(F)CC3)nc2c1)C1CC1 (single isomer, unassigned) [Example 16, N—((S)-(7-((R*)-Cyclopropyl(4,4,4-trifluoro-3-(trifluoromethyl)butanamido)methyl)imidazo[1,2-b]pyridazin-2-yl)(4,4-difluorocyclohexyl)methyl)benzamide]	–	130 nM
1300 nM	O=C(CCC(F)(F)F)N[C@@H](c1cnn2cc([C@@H](NC(=O)[C@@H]3C[C@H]3C(F)(F)F)C3CCC(F)(F)CC3)nc2c1)C1CC1 (relative stereo) [Example 150, (Trans-1R*, 2R*)—N—((S)-(7-((R)-Cyclopropyl(4,4,4-trifluorobutanamido)methyl)imidazo[1,2-b]pyridazin-2-yl)(4,4-difluorocyclohexyl)methyl)-2-(trifluoromethyl)cyclopropane-1-carboxamide]	> 20000 nM	–
49 nM	O=C(CC1CC(F)(F)C1)N[C@@H](c1cnn2cc([C@@H](NC(=O)c3nonc3C3CC3)C3CCC(F)(F)CC3)nc2c1)C1CCOCC1 (relative stereo) [Example 536, 4-Cyclopropyl-N—((S)-(7-((R*)-1-(2-(3,3-difluorocyclobutyl)acetamido)(tetrahydro-2H-pyran-4-yl)methylimidazo[1,2-b]pyridazin-2-yl)(4,4-difluorocyclohexyl)methyl)-1,2,5-oxadiazole-3-carboxamide]	12 nM	–
43 nM	O=C(CCC(F)(F)F)N[C@@H](c1cnn2cc([C@@H](NC(=O)c3nocc3OCC(F)F)C3CCC(F)(F)CC3)nc2c1)C1CC1 [Example 375, N—((S)-(7-((R)-Cyclopropyl(4,4,4-trifluorobutanamido)methyl)imidazo[1,2-b]pyridazin-2-yl)(4,4-difluorocyclohexyl)methyl)-4-(2,2-difluoroethoxy)isoxazole-3-carboxamide]	170 nM	–
1300 nM	C[C@@H](CC(=O)N[C@@H](c1cnn2cc([C@@H](NC(=O)[C@@H]3C[C@H]3C(F)(F)F)C3CCC(F)(F)CC3)nc2c1)C1CC1)C(F)(F)F (relative stereo) [Example 242, (trans-1R*,2R*)—N—((S)-(7-((R)-Cyclopropyl((S*)-4,4,4-trifluoro-3-methylbutanamido)methyl)imidazo[1,2-b]pyridazin-2-yl)(4,4-difluorocyclohexyl)methyl)-2-(trifluoromethyl)cyclopropane-1-carboxamide]	790 nM	–
51 nM	CC(CC(=O)N[C@@H](c1cnn2cc([C@@H](NC(=O)c3conc3C3CC3)C3CCC(F)(F)CC3)nc2c1)C1CC1)C(F)(F)F (single isomer, unassigned) [Example 129, 3-Cyclopropyl-N—((S)-(7-((R)-cyclopropyl((S*)-4,4,4-trifluoro-3-methylbutanamido)methyl)imidazo[1,2-b]pyridazin-2-yl)(4,4-difluorocyclohexyl)methyl)isoxazole-4-carboxamide]	–	250 nM
60 nM	O=C(CCC(F)(F)F)N[C@@H](c1cnn2cc([C@@H](NC(=O)c3nocc3CC(F)(F)F)C3CCC(F)(F)CC3)nc2c1)C1CC1 [Example 377, N—((S)-(7-((R)-Cyclopropyl(4,4,4-trifluorobutanamido)methyl)imidazo[1,2-b]pyridazin-2-yl)(4,4-difluorocyclohexyl)methyl)-4-(2,2,2-trifluoroethyl)isoxazole-3-carboxamide]	85 nM	–
620 nM	Cc1nonc1C(=O)N[C@H](c1cn2ncc([C@H](NC(=O)COCC(F)F)C3CC3)cc2n1)C1CCC(F)(F)CC1 [Example 304, N—((S)-(7-((R)-Cyclopropyl(2-(2,2-difluoroethoxy)acetamido)methyl)imidazo[1,2-b]pyridazin-2-yl)(4,4-difluorocyclohexyl)methyl)-4-methyl-1,2,5-oxadiazole-3-carboxamide]	910 nM	–
370 nM	CC(C)n1nccc1C(=O)N[C@H](c1cn2ncc(C(NC(=O)CC3(C(F)(F)F)CC3)C3(C#N)CC3)cc2n1)C1CCC(F)(F)CC1 (single isomer, unassigned) [Example 428, N—((S)-(7-((S*)-(1-Cyanocyclopropyl)(2-(1-(trifluoromethyl)cyclopropyl)acetamido)methyl)imidazo[1,2-b]pyridazin-2-yl)(4,4-difluorocyclohexyl)methyl)-1-isopropyl-1H-pyrazole-5-carboxamide]	–	120 nM
2400 nM	Cc1nonc1C(=O)N[C@H](c1cn2ncc([C@H](NC(=O)C(C)(C)CC(F)F)C3CC3)cc2n1)C1CCC(F)(F)CC1 [Example 328, N—((S)-(7-((R)-Cyclopropyl(4,4-difluoro-2,2-dimethylbutanamido)methyl)imidazo[1,2-b]pyridazin-2-yl)(4,4-difluorocyclohexyl)methyl)-4-methyl-1,2,5-oxadiazole-3-carboxamide]	> 20000 nM	–
